Experiment [1] addresses Glucose-6-phosphate 1-dehydrogenase (Homo sapiens, UniProt P11413). The experiment can be described thus: inhibition of Homo sapiens G6PD, dose series – biochemical, fluorescence, selectivity assay for P. falciparum G6PD inhibitor project, dose response (AID 504792). It is filed as functional.
In experiment [2] the target is Induced myeloid leukemia cell differentiation protein Mcl-1 (Homo sapiens, UniProt Q07820). The experiment can be described thus: blockers of MCL1 binding to BIM peptide – biochemical, fluorescence polarization, BIM-BH3 peptide, 1536-well, dose response (AID 2217). (Fluorescence polarisation rises when a labelled molecule tumbles more slowly, as on binding a larger partner.)

The target of experiment [3] is Heat shock protein HSP 90-alpha (Homo sapiens, UniProt P07900). It is filed as functional, organism-based.
Experiment [4] deals with Vero. The experiment can be described thus: cells. It is filed as functional. The conditions noted are these: Chlorocebus sabaeus.
Experiment [5] concerns the target T1, Alkaline phosphatase, tissue-nonspecific isozyme (Homo sapiens, UniProt P05186).
T1 sequence (P05186 whole entry): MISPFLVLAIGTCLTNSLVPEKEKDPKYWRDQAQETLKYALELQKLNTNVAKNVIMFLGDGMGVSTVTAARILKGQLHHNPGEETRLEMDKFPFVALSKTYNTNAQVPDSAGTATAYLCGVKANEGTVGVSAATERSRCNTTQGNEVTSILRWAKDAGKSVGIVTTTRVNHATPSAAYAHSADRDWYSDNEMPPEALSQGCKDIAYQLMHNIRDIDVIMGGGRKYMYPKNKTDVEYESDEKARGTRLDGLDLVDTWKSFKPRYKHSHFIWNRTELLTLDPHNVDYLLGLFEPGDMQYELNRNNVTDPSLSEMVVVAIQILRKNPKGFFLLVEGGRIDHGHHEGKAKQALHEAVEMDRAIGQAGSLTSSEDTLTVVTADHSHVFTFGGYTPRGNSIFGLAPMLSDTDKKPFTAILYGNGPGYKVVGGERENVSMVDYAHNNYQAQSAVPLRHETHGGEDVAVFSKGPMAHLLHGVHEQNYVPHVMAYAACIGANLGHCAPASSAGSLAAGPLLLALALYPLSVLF
The experiment can be described thus: activation of tissue-nonspecific alkaline phosphatase – biochemical, TNAP isozyme, mouse IAP uHTS hits, selectivity assay for mouse IAP activator project, dose response (AID 488880). It is filed as functional.

Experiment [6] deals with Intestinal-type alkaline phosphatase (Homo sapiens, UniProt P09923). Description: activation of human intestinal alkaline phosphatase – biochemical, dose response (AID 488873). It is filed as functional.
In experiment [7] the target is Intestinal-type alkaline phosphatase (Mus musculus, UniProt P24822). The experiment can be described thus: mouse intestinal alkaline phosphatase activators, dose response, biochemical, luminescence, uHTS hits (AID 488783). It is filed as functional.
The target in experiment [8] is Large T antigen (Simian virus 40, UniProt P03070). It is filed as functional, Betapolyomavirus macacae.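 Also: Confirmatory-stage PubChem screen for compounds that inhibit SV40 T antigen.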
The target in experiment [9] is Bcl-2-like protein 1 (Homo sapiens, UniProt Q07817). The experiment can be described thus: blockers of BCLXL peptide binding – biochemical, fluorescence polarization, 1536-well, selectivity assay for MCL1 inhibitor project, dose response (AID 2218).
Experiment [10] addresses SUMO-activating enzyme (Homo sapiens, UniProt Q9UBT2). Description: blockers of UBC9-mediated SUMO conjugation – biochemical, AlphaScreen, SUMOylation inhibitor project, confirmation (AID 2018). It is filed as functional. In general terms: Bead proximity is the source of the signal in Alpha formats.
Experiment [11] deals with Peroxisome proliferator-activated receptor gamma (Homo sapiens, UniProt P37231). The experiment can be described thus: PPARg transcriptional activation, reporter cells – cell-based, luminescence, assay provider, dose response (AID 504447). It is filed as functional.
Experiment [12] deals with T2, Zinc finger protein mex-5 (Caenorhabditis elegans, UniProt Q9XUB2).
T2 sequence (Q9XUB2 whole entry): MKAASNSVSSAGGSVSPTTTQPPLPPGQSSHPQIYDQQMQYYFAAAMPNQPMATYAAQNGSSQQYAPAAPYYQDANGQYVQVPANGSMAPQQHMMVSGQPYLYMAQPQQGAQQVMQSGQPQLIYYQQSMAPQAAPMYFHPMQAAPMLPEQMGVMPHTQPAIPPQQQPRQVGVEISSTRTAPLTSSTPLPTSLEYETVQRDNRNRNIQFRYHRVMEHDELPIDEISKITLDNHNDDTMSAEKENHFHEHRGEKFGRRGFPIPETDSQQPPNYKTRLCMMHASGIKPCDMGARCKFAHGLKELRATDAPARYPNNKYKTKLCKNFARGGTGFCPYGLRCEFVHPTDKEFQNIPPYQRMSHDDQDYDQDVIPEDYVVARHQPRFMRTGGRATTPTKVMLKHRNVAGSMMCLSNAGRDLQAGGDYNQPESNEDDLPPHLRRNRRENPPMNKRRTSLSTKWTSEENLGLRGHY
Description: potency of MEX-5 RNA-binding blockers – biochemical, C. elegans, fluorescence polarization, dose response (AID 1960).

The target in experiment [13] is T3, RNA-binding protein pos-1 (Caenorhabditis elegans, UniProt G5EF15).
T3 sequence (G5EF15 whole entry): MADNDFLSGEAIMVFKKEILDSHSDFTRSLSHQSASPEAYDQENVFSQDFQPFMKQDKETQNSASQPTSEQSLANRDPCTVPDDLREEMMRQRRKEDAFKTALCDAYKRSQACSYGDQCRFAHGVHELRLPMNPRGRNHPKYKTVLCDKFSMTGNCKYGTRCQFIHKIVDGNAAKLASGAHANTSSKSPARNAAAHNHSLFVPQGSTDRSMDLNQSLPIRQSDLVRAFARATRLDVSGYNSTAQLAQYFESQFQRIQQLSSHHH
The experiment can be described thus: disruptors of C. elegans POS-1 RNA interaction – biochemical, fluorescence polarization, dose response (AID 1964).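 Also: purified POS-1 fused to maltose binding protein made in E. coli; potency of compounds blocking POS-1 binding to fluorescent RNA.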

For experiment [14], the target named is T4, Corticotropin-releasing factor receptor 2/Corticotropin-releasing factor-binding protein (Homo sapiens, UniProt P24387+Q13324).
T4 sequence (Q13324 whole entry): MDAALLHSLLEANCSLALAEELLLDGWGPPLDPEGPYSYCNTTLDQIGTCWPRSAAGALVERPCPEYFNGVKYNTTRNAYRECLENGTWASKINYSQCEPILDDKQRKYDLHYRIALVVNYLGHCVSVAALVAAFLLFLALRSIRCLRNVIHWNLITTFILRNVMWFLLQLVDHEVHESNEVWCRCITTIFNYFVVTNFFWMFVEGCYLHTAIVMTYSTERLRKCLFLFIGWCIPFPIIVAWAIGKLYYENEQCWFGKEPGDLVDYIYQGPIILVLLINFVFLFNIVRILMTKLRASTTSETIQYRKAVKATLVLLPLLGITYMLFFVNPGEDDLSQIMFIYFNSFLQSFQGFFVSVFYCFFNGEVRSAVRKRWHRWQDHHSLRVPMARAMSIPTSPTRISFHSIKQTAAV
T4 sequence (P24387 whole entry): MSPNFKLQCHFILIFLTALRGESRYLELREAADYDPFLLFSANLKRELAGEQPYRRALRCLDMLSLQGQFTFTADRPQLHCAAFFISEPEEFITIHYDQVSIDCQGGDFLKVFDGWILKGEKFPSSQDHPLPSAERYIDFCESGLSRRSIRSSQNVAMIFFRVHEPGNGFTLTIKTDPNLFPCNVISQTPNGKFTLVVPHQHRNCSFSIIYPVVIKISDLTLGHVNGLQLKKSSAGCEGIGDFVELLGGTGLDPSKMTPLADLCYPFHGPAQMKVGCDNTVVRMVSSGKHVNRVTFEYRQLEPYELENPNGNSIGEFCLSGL
The experiment can be described thus: activators of CRF receptor 2 with binding protein – uHTS hits, confirmation (AID 602473). It is filed as functional. The settings on record: read-out: EC50_Mean.

For experiment [15], the target named is Kappa-type opioid receptor (Homo sapiens, UniProt P41145). The experiment can be described thus: SAR analysis of small molecule agonists of the kappa opioid receptor via a luminescent beta-arrestin assay - Set 3. [Related pubchem assays (depositor defined):AID1777, AID1785, AID1786, AID1966, AID2133, AID2136, AID2284, AID2500]. It is filed as functional.

Active and inactive are the calls of the source.

Chain of Intestinal-type alkaline phosphatase (Homo sapiens, UniProt P09923) (P09923 whole entry): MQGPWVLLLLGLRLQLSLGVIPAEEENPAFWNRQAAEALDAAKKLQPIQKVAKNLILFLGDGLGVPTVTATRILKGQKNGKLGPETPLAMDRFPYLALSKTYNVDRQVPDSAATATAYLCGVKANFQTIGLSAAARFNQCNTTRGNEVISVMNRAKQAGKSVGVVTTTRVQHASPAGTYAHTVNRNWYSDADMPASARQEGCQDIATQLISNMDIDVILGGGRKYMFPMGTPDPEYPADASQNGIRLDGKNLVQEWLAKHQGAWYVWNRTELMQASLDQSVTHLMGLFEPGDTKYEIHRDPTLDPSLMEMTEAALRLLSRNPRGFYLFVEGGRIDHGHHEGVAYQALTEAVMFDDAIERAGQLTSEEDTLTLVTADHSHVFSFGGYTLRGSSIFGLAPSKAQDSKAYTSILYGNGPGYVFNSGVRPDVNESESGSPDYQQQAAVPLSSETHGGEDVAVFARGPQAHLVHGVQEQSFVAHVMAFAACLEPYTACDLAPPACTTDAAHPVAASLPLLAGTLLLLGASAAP
Chain of Bcl-2-like protein 1 (Q07817 whole entry): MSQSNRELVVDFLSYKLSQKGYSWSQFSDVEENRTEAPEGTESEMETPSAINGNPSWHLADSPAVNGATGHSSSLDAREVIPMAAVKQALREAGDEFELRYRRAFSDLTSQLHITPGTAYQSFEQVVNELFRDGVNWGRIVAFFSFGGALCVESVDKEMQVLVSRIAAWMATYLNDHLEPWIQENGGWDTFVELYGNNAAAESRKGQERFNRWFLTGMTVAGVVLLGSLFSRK
Chain of Large T antigen (P03070 whole entry): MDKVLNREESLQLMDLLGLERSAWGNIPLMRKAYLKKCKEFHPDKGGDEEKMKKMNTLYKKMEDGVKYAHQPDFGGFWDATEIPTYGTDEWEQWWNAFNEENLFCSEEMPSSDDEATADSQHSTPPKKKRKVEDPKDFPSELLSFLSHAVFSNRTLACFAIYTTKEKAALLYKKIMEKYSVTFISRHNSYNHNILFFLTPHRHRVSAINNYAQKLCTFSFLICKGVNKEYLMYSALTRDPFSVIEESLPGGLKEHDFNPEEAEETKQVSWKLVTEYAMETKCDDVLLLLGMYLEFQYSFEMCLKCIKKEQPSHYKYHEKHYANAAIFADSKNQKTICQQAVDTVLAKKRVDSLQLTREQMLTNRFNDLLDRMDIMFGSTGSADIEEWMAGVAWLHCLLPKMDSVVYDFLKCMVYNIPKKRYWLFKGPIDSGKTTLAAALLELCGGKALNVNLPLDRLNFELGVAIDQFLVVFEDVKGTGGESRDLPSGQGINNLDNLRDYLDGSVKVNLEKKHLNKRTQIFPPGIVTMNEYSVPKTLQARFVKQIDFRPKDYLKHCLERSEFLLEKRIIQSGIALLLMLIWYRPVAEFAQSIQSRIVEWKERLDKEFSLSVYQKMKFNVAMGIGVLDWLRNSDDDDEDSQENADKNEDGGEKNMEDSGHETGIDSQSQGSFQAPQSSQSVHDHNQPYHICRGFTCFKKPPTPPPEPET
Chain of SUMO-activating enzyme (Q9UBE0 whole entry): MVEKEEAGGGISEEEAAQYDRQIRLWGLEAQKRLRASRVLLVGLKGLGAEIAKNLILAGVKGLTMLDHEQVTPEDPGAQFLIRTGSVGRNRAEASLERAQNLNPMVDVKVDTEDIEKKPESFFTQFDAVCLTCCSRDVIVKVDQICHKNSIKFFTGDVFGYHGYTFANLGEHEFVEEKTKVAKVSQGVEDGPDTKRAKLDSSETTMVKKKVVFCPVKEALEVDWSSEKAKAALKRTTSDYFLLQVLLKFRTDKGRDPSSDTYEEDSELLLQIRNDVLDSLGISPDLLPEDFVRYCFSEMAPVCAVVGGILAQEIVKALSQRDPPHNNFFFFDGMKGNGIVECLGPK
Chain of SUMO-activating enzyme (Q9UBT2 whole entry): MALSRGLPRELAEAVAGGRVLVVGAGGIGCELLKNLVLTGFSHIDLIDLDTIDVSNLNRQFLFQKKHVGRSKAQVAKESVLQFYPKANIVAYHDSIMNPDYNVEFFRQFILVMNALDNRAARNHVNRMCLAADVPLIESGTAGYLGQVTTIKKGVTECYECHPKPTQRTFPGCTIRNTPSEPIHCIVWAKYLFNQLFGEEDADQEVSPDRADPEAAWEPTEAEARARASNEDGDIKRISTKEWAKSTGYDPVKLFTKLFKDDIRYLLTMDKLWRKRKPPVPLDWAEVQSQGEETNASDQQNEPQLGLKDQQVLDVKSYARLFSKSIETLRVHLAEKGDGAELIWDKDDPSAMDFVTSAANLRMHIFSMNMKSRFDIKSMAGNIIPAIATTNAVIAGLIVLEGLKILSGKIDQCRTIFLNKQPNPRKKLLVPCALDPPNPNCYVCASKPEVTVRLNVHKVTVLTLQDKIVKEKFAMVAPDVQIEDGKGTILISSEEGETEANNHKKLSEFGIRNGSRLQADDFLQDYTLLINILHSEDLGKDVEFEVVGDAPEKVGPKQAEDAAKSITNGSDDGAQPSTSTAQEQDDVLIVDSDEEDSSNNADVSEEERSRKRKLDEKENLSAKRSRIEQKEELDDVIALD
Chain of Induced myeloid leukemia cell differentiation protein Mcl-1 (Q07820 whole entry): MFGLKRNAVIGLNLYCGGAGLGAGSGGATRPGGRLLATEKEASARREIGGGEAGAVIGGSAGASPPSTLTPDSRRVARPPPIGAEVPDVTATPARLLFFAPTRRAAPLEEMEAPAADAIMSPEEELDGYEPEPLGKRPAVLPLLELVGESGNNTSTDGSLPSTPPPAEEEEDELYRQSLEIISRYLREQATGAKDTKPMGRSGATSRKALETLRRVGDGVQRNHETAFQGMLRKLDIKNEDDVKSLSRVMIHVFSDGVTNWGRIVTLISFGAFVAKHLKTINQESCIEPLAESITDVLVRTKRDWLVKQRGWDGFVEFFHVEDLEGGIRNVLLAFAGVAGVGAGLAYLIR
Chain of Glucose-6-phosphate 1-dehydrogenase (P11413 whole entry): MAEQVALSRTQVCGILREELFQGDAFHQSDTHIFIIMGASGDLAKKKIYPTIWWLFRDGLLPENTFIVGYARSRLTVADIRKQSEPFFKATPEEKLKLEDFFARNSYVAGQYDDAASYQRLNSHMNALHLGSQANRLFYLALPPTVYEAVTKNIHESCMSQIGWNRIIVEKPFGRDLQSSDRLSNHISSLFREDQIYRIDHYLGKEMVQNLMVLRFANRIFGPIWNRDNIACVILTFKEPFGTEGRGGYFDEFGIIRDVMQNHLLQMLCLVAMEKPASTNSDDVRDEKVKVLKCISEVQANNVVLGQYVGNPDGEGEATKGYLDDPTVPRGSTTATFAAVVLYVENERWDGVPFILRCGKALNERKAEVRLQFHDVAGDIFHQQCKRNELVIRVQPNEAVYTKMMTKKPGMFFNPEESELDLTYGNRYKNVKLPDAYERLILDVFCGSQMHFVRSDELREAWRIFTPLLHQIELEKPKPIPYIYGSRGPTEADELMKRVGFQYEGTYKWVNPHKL
Chain of Peroxisome proliferator-activated receptor gamma (P37231 whole entry): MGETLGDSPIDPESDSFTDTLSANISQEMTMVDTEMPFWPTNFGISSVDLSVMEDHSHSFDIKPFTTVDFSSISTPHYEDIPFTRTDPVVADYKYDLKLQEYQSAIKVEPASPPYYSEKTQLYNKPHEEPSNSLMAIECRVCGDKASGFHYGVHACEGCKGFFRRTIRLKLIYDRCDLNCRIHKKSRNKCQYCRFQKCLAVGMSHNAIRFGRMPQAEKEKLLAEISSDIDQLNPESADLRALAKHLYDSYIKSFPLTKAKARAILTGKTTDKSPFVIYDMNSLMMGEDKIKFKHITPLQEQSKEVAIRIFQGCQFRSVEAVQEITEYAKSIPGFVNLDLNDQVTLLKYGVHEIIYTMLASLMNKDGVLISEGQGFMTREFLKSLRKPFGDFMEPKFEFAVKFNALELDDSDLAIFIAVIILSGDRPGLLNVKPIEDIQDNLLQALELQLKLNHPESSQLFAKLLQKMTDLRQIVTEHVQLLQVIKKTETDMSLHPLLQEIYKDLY
Chain of Intestinal-type alkaline phosphatase (Mus musculus, UniProt P24822) (P24822 whole entry): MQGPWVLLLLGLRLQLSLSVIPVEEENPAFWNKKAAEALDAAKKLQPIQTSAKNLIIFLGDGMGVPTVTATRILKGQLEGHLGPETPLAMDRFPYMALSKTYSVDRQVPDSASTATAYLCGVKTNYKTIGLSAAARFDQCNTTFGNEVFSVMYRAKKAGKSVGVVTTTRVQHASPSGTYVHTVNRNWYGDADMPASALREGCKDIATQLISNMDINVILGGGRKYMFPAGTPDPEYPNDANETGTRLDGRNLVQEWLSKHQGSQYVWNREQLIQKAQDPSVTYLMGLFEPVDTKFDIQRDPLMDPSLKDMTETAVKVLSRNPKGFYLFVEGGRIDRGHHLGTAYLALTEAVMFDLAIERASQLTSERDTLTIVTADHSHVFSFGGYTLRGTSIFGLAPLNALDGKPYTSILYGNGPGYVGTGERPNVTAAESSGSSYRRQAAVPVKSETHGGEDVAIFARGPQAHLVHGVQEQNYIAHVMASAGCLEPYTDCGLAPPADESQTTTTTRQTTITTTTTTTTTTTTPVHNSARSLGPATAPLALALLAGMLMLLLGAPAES
Chain of Kappa-type opioid receptor (P41145 whole entry): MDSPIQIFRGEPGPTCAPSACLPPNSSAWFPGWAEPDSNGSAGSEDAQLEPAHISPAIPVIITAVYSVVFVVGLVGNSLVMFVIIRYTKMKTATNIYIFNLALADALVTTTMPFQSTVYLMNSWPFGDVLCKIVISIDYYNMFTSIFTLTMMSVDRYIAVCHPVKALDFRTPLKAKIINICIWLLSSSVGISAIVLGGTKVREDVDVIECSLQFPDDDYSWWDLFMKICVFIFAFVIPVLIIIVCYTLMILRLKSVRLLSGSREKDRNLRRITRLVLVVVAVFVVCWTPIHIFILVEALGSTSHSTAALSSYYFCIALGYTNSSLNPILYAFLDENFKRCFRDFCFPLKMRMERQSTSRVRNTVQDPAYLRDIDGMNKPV

For the compound `O=C1NC(=S)NC(=O)C1=Cc1ccc(Br)s1`, the IC50 in [1] is 36.4 µM (inactive); in experiment [2], > 12.1 µM (not active); in experiment [8], 64.5 µM (active); in experiment [9] it was > 109 µM (not active). In experiment [3], the AC50 is 25.6 µM (active). The cytotoxic concentration (CC50) in experiment [4] was 21.4 µM (active). In addition, the EC50 was 61.6 µM (active) in experiment [5], 76.8 µM (active) in [6] and 59.7 µM (active) in experiment [7].

Consider `Cn1c2ccccc2c2cnn(CC(=O)Nc3ccc(Cl)cc3)c(=O)c21`, for which the IC50 in [10] is 46 µM (active).

`COc1ccccc1N1C(=O)C2C(C(=O)c3ccccc3)=NN(c3ccc(C)cc3)C2C1=O` (stereo not given): the EC50 in experiment [11] is 1.7 µM (active); in [12] it was 14.3 µM (active); in [13] it was 13.7 µM (inconclusive); in [14] it was 5.27 µM (active).

As for `Brc1ccc(CSc2nnc(-c3ccccn3)n2Cc2cccnc2)cc1`, the EC50 in experiment [15] is 8.51 µM (active).

The IC50 is the concentration at which inhibition is half-maximal. For orientation: AC50 means the midpoint of the concentration-response curve, whichever way the signal moves. By CC50 is commonly meant the concentration at which the toxic effect on the cells reaches its halfway point.

The values above are taken from ChEMBL document CHEMBL1201862, “PubChem BioAssay data set” (2004).
